# Columns and labels:
# JIMT1 xenograft model = experiment: JIMT1 xenograft tumor growth inhibition; assay type: in vivo, mouse; details: Breast JIMT1; IP 1 mg/kg BIW; non-amplified; P < 0.05
# Experimental: (§1) Percentage tumor growth inhibition by FGFR1-ECD.339-Fc was determined by area-under-the-curve (AUC) analysis of xenograft growth curves treated with FGFR1-ECD.339-Fc compared to albumin control. […] The difference in FGFR1-ECD.339-Fc-mediated xenograft inhibition between FGFR1 gene amplified and non-amplified lung cancer xenograft models was statistically significant (P=0.0333).
# (§2) Also shown in Table 5 are the dosing schedule for FGFR1-ECD.339-Fc in a mouse xenograft model, the percent tumor growth inhibition (TGI (%)) and the statistical significance of the tumor growth inhibition (P Value), as well as whether the FGFR1 gene is amplified in the cell line.
# (§3) An exemplary xenograft experiment is as follows. For Caki-1 and MSTO-211H, five million cells were implanted subcutaneously over the right flank of SCID mice (N=10 per group). […] Representative tumor growth curves are shown for a renal cancer, Caki-1, (A), and mesothelioma, MSTO-211H, (B) xenograft cancer model. […] In the MSTO-211H mesothelioma model, FGFR1-ECD.339-Fc administration reduced tumor growth (FIG. 16b) by 64% (P<0.0001).
# [1] = system: Caki-1 renal cell carcinoma xenograft, CD31; experiment: Tumor angiogenesis (CD31 immunostaining) in Caki-1 xenograft; assay type: in vivo, mouse; details: Caki-1 tumors; 5 mg/kg intravenously twice a week; Day 57
# Experimental: Human renal carcinoma Caki-1 cells (1.5×10^7 cells/mouse) cells were implanted subcutaneously into the right flank of CB17-SCID mice. One day after tumor implantation, the mice were randomized and treated intravenously with either vehicle or FGFR1-ECD.339-Fc (5 mg/kg) twice a week. At the end of the study (Day 57), tumors were excised (N=3/gp) and used for histological analysis. Frozen sections were probed with anti-mouse CD31 monoclonal antibody (BD Biosciences, Franklin Lakes, N.J.) and visualized using HRP-conjugated secondary antibody coupled with diaminobenzidine staining (brown color). Slides were counter-stained with hematoxylin to identify cell nuclei (blue color). Representative sections are shown (5× magnification).
# NCI-H1581 cells = experiment: CellTiter-Glo cell number, NCI-H1581; assay type: cell-based, human; details: 15 μg/ml, 4 days, 10%, 1% or 0.1% FBS
# Text: A panel of lung cancer cell lines displaying potential amplification of the FGFR1 gene was identified using CONAN (http://www.sanger.ac.uk/cgi-bin/genetics/CGP/conan/search.cgi) and Tumorscape (http://www.broadinstitute.org/tumorscape/pages/portalHomejsf). CONAN and Tumorscape represent public data mining tools to extract gene copy number information for predefined or user defined loci across the SNP6.0 dataset of cancer. Lung cancer cell lines DMS53, DMS114, NCI-H1581 and NCI-H520 were identified as having potential amplification of the FGFR1 gene (>4 copies/cell) and were selected for further analysis. Human small cell lung cancer (SCLC) cell lines DMS53 and DMS114 were purchased from ATCC (Manassas, Va.; Cat. No. CRL-2062; Cat. No. CRL-2066, respectfully). The cells were cultured in Waymouth's MB 752/1 medium+10% FBS+2 mM L-glutamine at 37° C. in a humidified atmosphere with 5% CO2. […]
# To determine cell number the CellTiter-Glo® Luminescent Cell Viability Assay (Promega, Madison, Wis.) was employed. CellTiter-Glo® is a homogeneous method of determining the number of viable cells in culture based on quantitation of the ATP present, an indicator of metabolically active cells. […] Luminescence was then determined on an EnVision™ Multilabel Plate Reader (PerkinElmer, Boston, Mass.) with a 0.2 second integration time. Results were expressed as relative light units (RLU)/well.
# G-401 xenograft model = experiment: G-401 xenograft tumor growth inhibition; assay type: in vivo, mouse; details: Renal G-401; IP 15 mg/kg BIW; non-amplified; P < 0.05
# Experimental: as §1, §2, §3
# Du145 xenograft model = experiment: Du145 xenograft tumor growth inhibition; assay type: in vivo, mouse; details: Prostate Du145; IP 0.15 mg/kg 3×/w; non-amplified; P ns
# Experimental: as §1, §2, §3
# [2] = system: VEGF-induced proliferation of HUVEC cells; experiment: VEGF-A induced HUVEC proliferation; assay type: cell-based, human; details: 10 μg/ml; 15 ng/ml VEGF-A165; 3 days, CellTiter-Glo
# Experimental: To determine whether FGFR1-ECD.339-Fc blocks VEGF-induced proliferation of endothelial cells, HUVEC cells (Life Technologies, Grand Island, N.Y.) were seeded at a density of 4×10^3 cells/well in basal media (Medium 200 (Life Technologies) with 2% heat inactivated FBS) and stimulated with either 10 ng/ml FGF2 (R&D Systems, Minneapolis, Minn.) or 15 ng/ml VEGF-A165 (R&D Systems, Minneapolis, Minn.) either in the presence of absence of 10 μg/ml FGFR1-ECD.339-Fc. HUVEC cell proliferation was determined 3 days post-stimulation using CellTiter-Glo® Luminescent Cell Viability Assay.
substance,measurement,setting,value
"FGFR1-ECD.339-Fc: human FGFR1 extracellular domain ending at amino acid 339 fused to an Fc; SEQ ID NO: 6 (mature form), SEQ ID NO: 5 with signal peptide",TGI (%),JIMT1 xenograft model,28%
same,CD31 staining (tumor angiogenesis),[1],reduced CD31 staining
same,cell number (CellTiter-Glo),NCI-H1581 cells,reduced
same,TGI (%),G-401 xenograft model,36%
same,TGI (%),Du145 xenograft model,31%
same,VEGF-induced proliferation of HUVECs,[2],did not block
